Assay results as given in patent publication USRE34712E, “Pharmaceutically useful (+)-1-(3-dimethylaminopropyl)-1-(4'-fluorophenyl)-1,3-dihydroiso benzofuran-5-carbonitrile and non-toxic acid addition salts thereof” (priority 1988, dated 1994).

Tests used:
depression in man = conditions: racemate, Ref. A. Gravem et al. 1987; cited from earlier work
[1] = tested on: effect of 5-HTP (5-HT syndrome); assay: 5-HTP-potentiation (5-HT syndrome in mice); assay type: in vivo; conditions: 5-HTP 100 mg/kg i.v. 30 minutes after test substance, log-probit analysis
Method: The test evaluates the ability of the substance to potentiate the effect of 5-HTP, which results in development of 5-HT syndrome (Christensen, Fjalland, Pedersen, Danneskiold-Samsoe and Svendsen; European J. Pharmacol. 41, 153-162, 1977).
Each treatment group consists of 3 mice, and two groups are treated with the highest test dose. A control group only treated with 5-HTP is included and a group treated with citalopram 10 mg/kg and 5-HTP is used as reference for full 5-HT syndrome.
30 minutes after the administration of the test substance, the other groups are given 5-HTP (100 mg/kg) i.v. (injection time 5-10 sec.). After this 5-HTP dose normal, untreated mice remain unaffected, but if the animals have been pretreated with a substance, which inhibits the uptake of 5-HT or a 5-HT agonist, a 5-HTP syndrome will occur. The symptoms are the same as previously described: (1) excitation, (2) tremor, and (3) abduction of the hind limbs. The animals are observed for 15 minutes and each animal is given one point for each symptom present. Again the result is stated in fractions: 0/9, 1/9, . . . 9/9, where 0, 1, . . . , 9 are the number of points per group after the dose in question. The ED50 value is calculated by log-probit analysis.

[2] = assay type: physicochemical
Method: A 2:1 addition compound of the (+)-isomer with L(+)-tartaric acid was prepared in the following manner: 4 g of the (+)-isomer as base were dissolved in 100 ml of diethyl ether and extracted into 100 ml of water containing 0.8 g of L(+)-tartaric acid by stirring. The organic phase was separated and discarded. The water-phase was freeze-dried in vacuo (<0.1 mm Hg) for 18 hours leaving 3.8 g of a white powder of the title compound.

SMILES: CN(C)CCCC1(c2ccc(F)cc2)OCc2cc(C#N)ccc21 (racemic) [(±)-citalopram, 1-(3-dimethylaminopropyl)-1-(4'-fluorophenyl)-1,3-dihydroisobenzofuran-5-carbonitrile, reference compound]
- antidepressant efficacy in man (depression in man): efficient antidepressant compound in man
- ED50 ([1]; Mus musculus, iv, 0.5 h, read-out: 5-HTP pot. ED50): 3.3 µmol/kg

SMILES: CN(C)CCCC1(c2ccc(F)cc2)OCc2cc(C#N)ccc21 (single isomer, unassigned) [2:1 addition compound of the (+)-isomer with L(+)-tartaric acid]
- stability [2]: stable
- hygroscopicity ([2]; freeze-dried white powder): not hygroscopic

SMILES: CN(C)CCCC1(c2ccc(F)cc2)OCc2cc(C#N)ccc21 (single isomer, unassigned; (+)) [(+)-citalopram, (+)-1-(3-Dimethylaminopropyl)-1-(4'-fluorophenyl)-1,3-dihydroisobenzofuran-5-carbonitrile]
- 5-HTP pot. ED50 [1]: 2.0 µmol/kg

SMILES: CN(C)CCCC1(c2ccc(F)cc2)OCc2cc(C#N)ccc21 (single isomer, unassigned; (-)) [(-)-citalopram, (-)-1-(3-dimethylaminopropyl)-1-(4'-fluorophenyl)-1,3-dihydroisobenzofuran-5-carbonitrile]
- 5-HTP pot. ED50 [1]: 120 µmol/kg
